Literature values as cited in patent publication US20110048980A1, “Fatty Acid Oxidation Inhibitors Treating Hyperglycemia and Related Disorders” (Symcopeia Company, priority 2007, published 2011).

Experiments:
[1] = in vivo
[2] = pioglitazone added to other glucose lowering drugs, equivalent glucose-lowering

COc1ccccc1OCC(O)CN1CCN(CC(=O)Nc2c(C)cccc2C)CC1 (stereo not shown) [Ranolazine, ranolazine]
QT interval effect [1]: causes QT interval prolongation

CCc1ccc(CCOc2ccc(CC3SC(=O)NC3=O)cc2)nc1 (stereo not shown) [pioglitazone]
increase in risk of congestive heart failure (CHF) [2]: 2-3 fold

CN(CCOc1ccc(CC2SC(=O)NC2=O)cc1)c1ccccn1 (stereo not shown) [rosiglitazone]
CHD events, relative risk (IGT patients, not statistically reduced, trend): 1.37 | increase in incidence of CHF (pre-diabetic population): 7 fold
